These results are taken from US20260070887A1 (Shenzhen Zhongge Biological Technology Co., Ltd., priority 2022, published 2026).

Where two headings read alike, the source gives them in different places.

The subject of experiment [1] is A2780 cells. Nature of the experiment: A2780 cell anti-proliferation assay. Format: cell-based. The settings on record: 6 days, Cell Titer-Glo. Here is the method: A2780 (ECACC) cells were cultured in RPMI-1640 complete medium (Gibco, A1049101) containing 10% fetal bovine serum (Gibco, 10099-141C), 100 U penicillin and 100 μg/mL streptomycin (Gibco, 15140-122). The Promega kit Cell Titer-Glo (Promega: G7572) was used in this method for test.
A2780 cells were cultured in T75 cell flasks (Corning, 430641) and the cells were placed in a 37° C., 5% CO2 incubator. Cells were passaged when reaching a cell density of 70%-80%, once every five days. To perform the experiment, the test compounds were dissolved in DMSO to prepare a 10 mM stock solution, and the test compounds were added to the 384-well cell test plate (Corning, 3765) at the predetermined concentration (19.5 nM-[…]) using ECHO. A2780 cells were digested and 4000 cells (60 μL medium) were seeded per well in the test plate. The 384-well plate was then centrifuged at 500 rpm for 1 minute, and then placed in a 37° C., 5% CO2 incubator for 6 days of cultivation. Six days later, the cell culture plate was equilibrated for 10 minutes at room temperature, 25 μL of Cell Titer-Glo was added to each well, and the mixture was shaken and mixed well and let stand for 5 minutes. The luminescence values for samples in various wells were read using a microplate reader in Luminescence mode.
The percentage of inhibition of A2780 cell proliferation by the test compound at each concentration was calculated by comparing with the values of the control group (0.2% DMSO). The IC50 values of the compounds were obtained by concentration-inhibition rate nonlinear regression analysis of the test compounds using GraphPad Prism 9.

Experiment [2] relates to OVCAR-3 cells. Nature of the experiment: OVCAR-3 cell proliferation (Cell Titer-Glo, 10 days). Format: cell-based, human. The gist of the method:
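400 cells per well were seeded onto pre-dispensed compound (final 0.12 nM to 10 μM) in RPMI-1640 with 20% FBS and insulin, then co-cultured for 10 days. Viability was read as Cell Titer-Glo luminescence, inhibition was taken against 0.1% DMSO control, and IC50 came from nonlinear concentration-inhibition regression.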
Background: Cellular ATP, detected with luciferase, serves as a proxy for viable cell number.

The test system of experiment [3] is HT-29 cells. Kind of experiment: HT-29 cell proliferation (Cell Titer-Glo, 6 days). Format: cell-based. Here is the method: The inhibitory effect on the KIF18A target by the compounds of the present disclosure was evaluated by testing the inhibitory effect on proliferation of HT-29 cells by the compounds of the present disclosure.
HT-29 (ATCC, HTB-38) cells were cultured in McCoy's 5a complete medium (Gibco, 12330-031) containing 10% fetal bovine serum (Gibco, 10099-141C), 100 U penicillin and […] streptomycin (Gibco, 15140-122). The Promega kit Cell Titer-Glo (Promega: G7572) was used in this method for test. • 1. HT-29 cells were cultured in T75 cell flasks (Corning, 430641) and the medium was placed in a 37° C., 5% CO2 incubator. Cells were passaged when reaching a cell density of 70%-80%, approximately twice per week. • 2. To perform the experiment, the test compounds were dissolved in DMSO to prepare a 10 mM stock solution, and the test compounds were added to the 384-well cell test plate (Corning, 3765) at the predetermined concentration using ECHO. • 3. The cell culture flask was taken out, the medium was removed, and the cells were rinsed with PBS. Then 2 mL of trypsin (with 0.25% EDTA) was added, and the flask was placed in the incubator for digestion for 4 minutes. • 4. Digestion was stopped by adding 4 mL of complete medium and the cell suspension was transferred to a centrifuge tube and centrifuged at 1000 rpm for 4 minutes. • 5. The cells were resuspended in 6 mL of complete medium, followed by cell counting. The cell density was adjusted to 4,170 cells/mL, and the cells were added to a 384-well plate at 60 μL/well. • 6. The 384-well plate was centrifuged at 500 rpm for 1 minute, and then placed in a 37° C., 5% CO2 incubator for 6 days of cultivation. • 7. Six days later, the cell culture plate was equilibrated for 10 minutes at room temperature, 25 μL of Cell Titer-Glo was added to each well, and the mixture was shaken and mixed well and let stand for 5 minutes. The luminescence values for samples in various wells were read using a microplate reader in Luminescence mode.
The percentage of inhibition of cell proliferation by the test compound at each concentration was calculated by comparing with the values of the control group (0.3% DMSO). The IC50 values of the compounds were obtained by concentration-inhibition rate nonlinear regression analysis of the test compounds using GraphPad Prism 9.

As for `CC1(C)Cn2c(cc3c(NC(=O)c4ccc(NS(=O)(=O)CCO)cc4N4CCC5(CC4)CC5)cccc32)CO1` [Example 371, N-(3,3-dimethyl-3,4-dihydro-1H-[1,4]oxazino[4,3-a]indol-9-yl)-4-(2-hydroxyethylsulfonamido)-2-(6-azaspiro[2.5]octan-6-yl)benzamide], the IC50 in experiment [1] (Homo sapiens, A2780, 144 h) was above 10 µM; in experiment [2] (Homo sapiens, OVCAR-3, 240 h) it was at most 0.05 µM; in experiment [3] (Homo sapiens, HT-29, 144 h), at most 0.2 µM.
Consider `CC1(O)CCCn2c1cc1c(NC(=O)c3ccc(NS(=O)(=O)CCO)cc3N3CCC4(CC3)CC4)cccc12` (centres unmarked) [Example 372], for which the concentration for half-maximal inhibition (IC50) in experiment [1] is above 10 µM; in experiment [2], at most 0.05 µM; in experiment [3], at most 0.2 µM.
For the molecule `COc1ccc(NC(=O)c2ccc(NS(=O)(=O)CCO)cc2N2CCC3(CC2)CC3)c2cc3n(c12)CC(C)(C)OC3` [Example 455, 4-((2-hydroxyethyl)sulfonamido)-N-(6-methoxy-3,3-dimethyl-3,4-dihydro-1H-[1,4]oxazinyl[4,3-a]indol-9-yl)-2-(6-azaspiro[2.5]oct-6-yl)benzamide], the IC50 in experiment [1] (Homo sapiens, A2780, 144 h) is above 10 µM; in experiment [2] (Homo sapiens, OVCAR-3, 240 h) it was at most 0.05 µM; in experiment [3] (Homo sapiens, HT-29, 144 h) it was at most 0.2 µM.
`N#Cc1ccc(NC(=O)c2ccc(NS(=O)(=O)CCO)cc2N2CCC(=C(F)F)CC2)c2cc3n(c12)CCC(F)(F)C3` [Example 378]: the IC50 in experiment [1] was 7.7 µM; in experiment [2] it was at most 0.05 µM; in experiment [3], at most 0.2 µM.
In experiment [2], `CC1(C)Cn2c(cc3c(NC(=O)c4ccc(NS(=O)(=O)CCO)cc4N4CCC5(CC4)CC5)ccc(OC(F)F)c32)CO1` [Example 523] displayed an IC50 of at most 0.05 µM.
In the case of `CNc1cc(NS(=O)(=O)CCO)cc(N2CCC3(CC2)CC3)c1C(=O)Nc1cc(C)nc(N2CCC(F)(F)CC2)n1` [Example 4, N-(2-(4,4-difluoropiperidin-1-yl)-6-methylpyrimidin-4-yl)-4-(2-hydroxyethylsulfonamide)-2-methylamino-6-(6-azaspiro[2.5]octan-6-yl)benzamide], the IC50 in experiment [1] is 8.3 µM; in experiment [2], at most 0.05 µM; in experiment [3] it was at most 0.2 µM.
`CC1(C)Cn2c(cc3c(NC(=O)c4ccc(NS(=O)(=O)CCO)cc4N4CCC5(CC4)CC5)ccc(C#N)c32)CO1` [Compound 392, N-(6-cyano-3,3-dimethyl-3,4-dihydro-1H-[1,4]oxazino[4,3-a]indol-9-yl)-4-((2-hydroxyethyl)sulfonamido)-2-(6-azaspiro[2.5]oct-6-yl)benzamide]: the half-inhibitory concentration (IC50) in experiment [1] (Homo sapiens, A2780, 144 h) was 6.1 µM; in experiment [2] (Homo sapiens, OVCAR-3, 240 h), at most 0.05 µM; in experiment [3] (Homo sapiens, HT-29, 144 h) it was at most 0.2 µM.
Consider `O=C(Nc1cccc2c1cc1n2CCOC1)c1ccc(NS(=O)(=O)CCO)cc1N1CCC(=C(F)F)CC1` [Example 319, 2-(4-difluoromethylene)piperidin-1-yl-N-(3,4-dihydro-1H-[1,4]oxazino[4,3-a]indol-9-yl)-4-((2-hydroxyethyl)sulfonamide) benzamide], for which the IC50 is above 10 µM in experiment [1], at most 0.05 µM in experiment [2] and 0.2 to 1 µM in experiment [3].
`N#Cc1ccc(NC(=O)c2ccc(NS(=O)(=O)CCO)cc2N2CCC(=C(F)F)CC2)c2cc3n(c12)CCOC3` [Example 364, N-(6-cyano-3,4-dihydro-1H-[1,4]oxazino[4,3-a]indol-9-yl)-2-(4-(difluoromethylene)piperidin-1-yl)-4-((2-hydroxyethyl)sulfonamido)benzamide]: the IC50 in experiment [1] (Homo sapiens, A2780, 144 h) is 9.4 µM; in experiment [2] (Homo sapiens, OVCAR-3, 240 h), 0.05 to 0.5 µM; in experiment [3] (Homo sapiens, HT-29, 144 h) it was 0.2 to 1 µM.
Regarding `COC1c2cc3c(NC(=O)c4ccc(NS(=O)(=O)CCO)cc4N4CCC5(CC4)CC5)cccc3n2CCC1(F)F` (single isomer, unassigned) [Example 340-P2], the IC50 was above 10 µM in experiment [1], at most 0.05 µM in experiment [2] and at most 0.2 µM in experiment [3].
On to `CC1(C)Cn2c(cc3c(NC(=O)c4ccc(NS(=O)(=O)CCO)cc4N4CCC(=C(F)F)CC4)cccc32)CO1` [Example 370, 2-(4-(difluoromethylene)piperidin-1-yl)-N-(3,3-dimethyl-3,4-dihydro-1H-[1,4]oxazino[4,3-a]indol-9-yl)-4-((2-hydroxyethyl)sulfonamido)benzamide], for which the IC50 is above 10 µM in experiment [1] (Homo sapiens, A2780, 144 h); at most 0.05 µM in experiment [2] (Homo sapiens, OVCAR-3, 240 h); 0.2 to 1 µM in experiment [3] (Homo sapiens, HT-29, 144 h).
For `O=C(Nc1ccc(F)c2c1nc1n2CCOC1)c1ccc(NS(=O)(=O)CCO)cc1N1CCC2(CC1)CC2` [Example 308, N-(6-fluoro-3,4-dihydro-1H-benzo[4,5]imidazo[2,1-c][1,4]oxazin-9-yl)-4-((2-hydroxyethyl)sulfonamido)-2-(6-azaspiro[2.5]octan-6-yl)benzamide], the IC50 was above 10 µM in experiment [1] (Homo sapiens, A2780, 144 h); at most 0.05 µM in experiment [2] (Homo sapiens, OVCAR-3, 240 h); at most 0.2 µM in experiment [3] (Homo sapiens, HT-29, 144 h).
The corresponding values for `N#Cc1ccc(NC(=O)c2ccc(NS(=O)(=O)CCO)cc2N2CCC3(CC2)CC3)c2cc3n(c12)CCOC3` [Example 310, N-(6-cyano-3,4-dihydro-1H-[1,4]oxazino[4,3-a]indol-9-yl)-4-((2-hydroxyethyl)sulfonamido)-2-(6-azaspiro[2.5]oct-6-yl)benzamide] are above 10 µM, at most 0.05 µM and at most 0.2 µM.
For the molecule `COc1ccc(NC(=O)c2ccc(NS(=O)(=O)CCO)cc2N2CCC(=C(F)F)CC2)c2cc3n(c12)CCOC3` [Compound 405, 2-(4-(difluoromethylene)piperidin-1-yl)-4-((2-hydroxyethyl)sulfonamido)-N-(6-methoxy-3,4-dihydro-1H-[1,4]oxazinyl[4,3-a]indol-9-yl)benzamide], the figures for the IC50 in experiment [1], in experiment [2] and in experiment [3] were above 10 µM, at most 0.05 µM and at most 0.2 µM, respectively.
Consider `CC1(C)OCCn2c1cc1c(NC(=O)c3ccc(NS(=O)(=O)CCO)cc3N3CCC(=C(F)F)CC3)cccc12` [Compound 395, 2-(4-(difluoromethylene)piperidin-1-yl)-N-(1,1-dimethyl-3,4-dihydro-1H-[1,4]oxazino[4,3-a]indol-9-yl)-4-((2-hydroxyethyl)sulfonamido)benzamide], for which the IC50 in experiment [1] (Homo sapiens, A2780, 144 h) was above 10 µM; in experiment [2] (Homo sapiens, OVCAR-3, 240 h), 0.05 to 0.5 µM; in experiment [3] (Homo sapiens, HT-29, 144 h) it was 0.2 to 1 µM.
Regarding `O=C(Nc1cccc2c1cc1n2CCC(F)(F)C1)c1ccc(NS(=O)(=O)CCO)cc1N1CCC(=C(F)F)CC1` [Example 374, N-(8,8-difluoro-6,7,8,9-tetrahydropyridino[1,2-a]indol-1-yl)-2-(4-(difluoromethylene)piperidin-1-yl)-4-((2-hydroxyethyl)sulfonamido)benzamide], the IC50 was 8.5 µM in experiment [1] (Homo sapiens, A2780, 144 h); at most 0.05 µM in experiment [2] (Homo sapiens, OVCAR-3, 240 h); at most 0.2 µM in experiment [3] (Homo sapiens, HT-29, 144 h).
On to `Nc1cc(NS(=O)(=O)CCO)cc(N2CCC3(CC2)CC3)c1C(=O)Nc1cccc(N2CCC(F)(F)CC2)c1` [Example 1, 2-amino-N-(3-(4,4-difluoropiperidin-1-yl)phenyl)-4-((2-hydroxyethyl)sulfonamide)-6-(6-azaspiro[2.5]octan-6-yl)benzamide], for which the IC50 in experiment [2] was at most 0.05 µM; in experiment [3] it was at most 0.2 µM.
Consider `O=C(Nc1cccc2c1cc1n2CC2CCC1O2)c1ccc(NS(=O)(=O)CCO)cc1N1CCC(=C(F)F)CC1` (centres unmarked) [Compound 398, 2-(4-(difluoromethylene)piperidin-1-yl)-4-((2-hydroxyethyl)sulfonamido)-N-(7,8,9,10-tetrahydro-6H-7,10-epoxyazeto[1,2-a]indol-1-yl)benzamide], for which the results for the IC50 in experiment [1] and in experiment [2] were above 10 µM and at most 0.05 µM, respectively.

The term IC50 denotes the concentration that inhibits the measured activity by half. High values mean a need for much substance, low ones inhibition by little substance.
